Assays:
BxACE-3 = target: T1, BxACE-3 (Bursaphelenchus xylophilus, UniProt D2JYX1); assay: colorimetric acetylthiocholine/DTNB assay; assay type: biochemical; details: read-out: % inhibition at 2 mM
T1 construct: gene AChE3; recombinant, baculovirus system

BxACE-1 = target: T2, BxACE-1 (Bursaphelenchus xylophilus, UniProt D2JYW9); assay: colorimetric acetylthiocholine/DTNB assay; assay type: biochemical; details: read-out: % inhibition at 2 mM
T2 construct: gene AChE1; recombinant, baculovirus system
T2 sequence (D2JYW9 entry or part of it): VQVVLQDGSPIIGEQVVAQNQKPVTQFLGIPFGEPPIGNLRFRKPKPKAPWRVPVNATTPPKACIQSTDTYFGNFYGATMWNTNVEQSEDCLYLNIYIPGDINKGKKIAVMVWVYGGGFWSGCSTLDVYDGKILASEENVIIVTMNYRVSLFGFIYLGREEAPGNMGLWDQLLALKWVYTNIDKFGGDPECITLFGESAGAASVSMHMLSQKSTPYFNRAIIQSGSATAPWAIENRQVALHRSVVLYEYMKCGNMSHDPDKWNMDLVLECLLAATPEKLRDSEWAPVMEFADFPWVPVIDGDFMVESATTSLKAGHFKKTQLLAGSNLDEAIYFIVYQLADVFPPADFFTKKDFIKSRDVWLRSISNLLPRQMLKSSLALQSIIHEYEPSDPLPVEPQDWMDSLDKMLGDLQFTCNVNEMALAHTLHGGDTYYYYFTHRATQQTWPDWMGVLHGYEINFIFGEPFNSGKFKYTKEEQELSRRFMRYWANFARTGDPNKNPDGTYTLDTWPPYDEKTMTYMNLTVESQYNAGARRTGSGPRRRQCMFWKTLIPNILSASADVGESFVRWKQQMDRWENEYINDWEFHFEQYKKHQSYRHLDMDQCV

T1 sequence (D2JYX1 entry or part of it): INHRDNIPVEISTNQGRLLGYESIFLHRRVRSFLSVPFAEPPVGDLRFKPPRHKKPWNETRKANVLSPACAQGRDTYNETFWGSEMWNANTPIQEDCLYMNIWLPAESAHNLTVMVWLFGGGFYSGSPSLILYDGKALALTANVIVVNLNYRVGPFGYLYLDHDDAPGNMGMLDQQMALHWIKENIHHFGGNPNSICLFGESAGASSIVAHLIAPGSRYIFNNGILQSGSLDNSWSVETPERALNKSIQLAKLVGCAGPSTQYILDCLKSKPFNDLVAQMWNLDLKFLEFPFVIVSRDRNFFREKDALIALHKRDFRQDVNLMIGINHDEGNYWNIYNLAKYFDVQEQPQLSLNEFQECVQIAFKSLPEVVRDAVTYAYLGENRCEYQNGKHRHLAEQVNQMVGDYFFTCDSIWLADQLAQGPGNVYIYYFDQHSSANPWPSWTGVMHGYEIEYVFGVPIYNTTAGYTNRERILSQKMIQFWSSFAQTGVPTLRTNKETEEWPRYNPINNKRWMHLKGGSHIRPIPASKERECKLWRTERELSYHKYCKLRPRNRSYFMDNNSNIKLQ

C=C(C)C1CC=C(C)CC1 (stereo not drawn) [limonene]
inhibition at 2000 µM (BxACE-3): ~10%

CC1=CCC2CC1C2(C)C (stereo not drawn) [α-pinene]
inhibition at 2000 µM (BxACE-3): ~10% | inhibition at 2000 µM (BxACE-1): ~25%
